Several values for one entry are separate records, joined by “and”; a condition that tells them apart may be missing. Equal values may be shown once.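 Five compound concentrations were applied to cells in 96-well plates for 48 hours; endpoints were derived by simple linear interpolation of the resulting dose-response curve. GI50 = concentration required for 50% inhibition of growth. Definition used: TGI = concentration required for complete inhibition of growth.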
Key:
Test in all cases: NCI anticancer screen, dose series, 48 h
A498 renal = system: A498 renal
A549 NSCLC = system: A549 NSCLC
HOP-62 NSCLC = system: HOP-62 NSCLC
NCI-H226 lung = system: NCI-H226 lung
NCI-H23 lung = system: NCI-H23 lung
OVCAR-3 ovarian = system: OVCAR-3 ovarian
RPMI-8226 leukemia = system: RPMI-8226 leukemia
SF-295 CNS = system: SF-295 CNS
SK-OV-3 ovarian = system: SK-OV-3 ovarian
SNB-19 CNS = system: SNB-19 CNS

Structure (SMILES)	TGI (A498 renal)	TGI (A549 NSCLC)	TGI (HOP-62 NSCLC)	TGI (NCI-H226 lung)	TGI (NCI-H23 lung)	TGI (OVCAR-3 ovarian)	TGI (RPMI-8226 leukemia)	TGI (SF-295 CNS)	TGI (SK-OV-3 ovarian)	TGI (SNB-19 CNS)	GI50 (A498 renal)	GI50 (A549 NSCLC)	GI50 (HOP-62 NSCLC)	GI50 (NCI-H226 lung)	GI50 (NCI-H23 lung)	GI50 (RPMI-8226 leukemia)	GI50 (SNB-19 CNS)	GI50 (SF-295 CNS)	GI50 (SK-OV-3 ovarian)	GI50 (OVCAR-3 ovarian)
COC(=O)Nc1nc2ccc(Br)cc2[nH]1	> 100 µM	> 100 µM	> 100 µM	> 100 µM	80.7 µM	82.5 µM	> 100 µM	> 100 µM	67.9 µM	–	–	–	–	–	–	–	–	–	–	–
CC(C)OP(=O)(NC(=S)c1ccccc1)OC(C)C	> 100 µM	> 100 µM	–	> 100 µM	> 100 µM	> 100 µM	–	> 100 µM	> 100 µM	> 100 µM	–	–	–	–	–	–	–	–	–	–
CN(C)CCNC(=O)c1ccc(NC(=O)c2nc([N+](=O)[O-])cn2C)cc1	> 100 µM	> 100 µM	> 100 µM	> 100 µM	> 100 µM	> 100 µM	> 100 µM	> 100 µM	> 100 µM	–	–	–	–	–	–	–	–	–	–	–
COC(C)(C)C/C=C/C(C)=C/C=C/C(C)=C\C=C\C(C)=C\C=C\C=C(C)\C=C\C=C(C)\C=C\C=C(C)\C=C\CC(C)(C)OC	> 150 µg/mL	> 150 µg/mL	> 150 µg/mL	> 150 µg/mL	> 150 µg/mL	–	> 150 µg/mL	–	–	> 150 µg/mL	> 150 µg/mL	> 150 µg/mL	> 150 µg/mL	> 150 µg/mL	> 150 µg/mL	> 150 µg/mL	> 150 µg/mL	–	–	–
O=C1c2ccccc2-c2c1c1ccccc1c(=O)n2CCCn1ccnc1	14.1 µM	4.74 µM	13 µM	3.04 µM	6.05 µM	–	6.26 µM	2.99 µM	> 100 µM	> 100 µM	2.74 µM	1.87 µM	2.72 µM	1.35 µM	1.84 µM	0.73 µM	2.11 µM	0.896 µM	6.68 µM	–
COc1cc(-c2nc(SCCC(C)C)nc(Nc3ccc(S(N)(=O)=O)cc3)c2C#N)cc(OC)c1OC	5.36 µM	> 100 µM	> 100 µM	4.64 µM	12.5 µM	6.12 µM	6.79 µM	7.35 µM	–	> 100 µM	1.89 µM	3.46 µM	4.12 µM	1.67 µM	2.92 µM	1.73 µM	5.38 µM	2.71 µM	–	2.38 µM
CN(C)c1ccc(/C=c2\sc3nc4ccccc4n3c2=O)cc1	> 100 µM	> 100 µM	> 100 µM	> 100 µM	> 100 µM	> 100 µM	–	> 100 µM	–	> 100 µM	–	–	–	–	–	–	–	–	–	–
Cn1cc(C(=O)C[n+]2ccccc2)c2ccccc21	92.4 µM	> 100 µM	> 100 µM	59.1 µM	> 100 µM	> 100 µM	> 100 µM	> 100 µM	–	> 100 µM	–	–	–	–	–	–	–	–	–	–
O=C(c1ccccc1)c1cn(/N=C\c2ccccc2)c(=O)nc1-c1ccccc1	> 100 µM	> 100 µM	> 100 µM	> 100 µM	> 100 µM	> 100 µM	–	> 100 µM	> 100 µM	> 100 µM	–	–	–	–	–	–	–	–	–	–
CC(=O)C1=C(O)CC2CC3c4[nH]c5ccccc5c4CCN3CC2C1 (stereo not given)	> 100 µM	> 100 µM	> 100 µM	> 100 µM	> 100 µM	> 100 µM	–	> 100 µM	> 100 µM	> 100 µM	–	–	–	–	–	–	–	–	–	–
OCC#Cc1ccccc1C#CCCCCCC#Cc1ccccc1C#CCO	44.8 µM	45.3 µM	31.4 µM	38.9 µM	33.6 µM	32.9 µM	–	33.8 µM	> 100 µM	> 100 µM	24.1 µM	19.2 µM	16.2 µM	21.8 µM	18.4 µM	–	34.8 µM	16.9 µM	31 µM	16 µM
O=C1c2ccccc2S(=O)(=O)c2cc(-c3nn[nH]n3)ccc21	> 100 µM	> 100 µM	> 100 µM	> 100 µM	> 100 µM	> 100 µM	–	> 100 µM	> 100 µM	> 100 µM	–	–	–	–	–	–	–	–	–	–
CC12CCC(Br)C(C)(C)C1CC=C1C(=O)OCC1O2 (stereo not given)	24.7 µM	> 57.9 µM	–	23.2 µM	32 µM	31.3 µM	> 60.6 µM	37.6 µM	29.9 µM	> 50.4 µM	–	–	–	–	–	–	–	–	–	–
Clc1ccc(C(n2cc(Br)cn2)n2cc(Br)cn2)cc1	33.1 µM	32.6 µM	34.3 µM	22.5 µM	42.6 µM	28 µM	60.2 µM	29.8 µM	60.9 µM	–	–	–	–	–	–	–	–	–	–	–
O=c1c2cc(Cl)ccc2sc2cccc(Cl)c12	> 100 µM	> 100 µM	> 100 µM	> 100 µM	> 100 µM	> 100 µM	> 100 µM	> 100 µM	–	> 100 µM	–	–	–	–	–	–	–	–	–	–
CN1C(=O)C2C(C1=O)C1(O)c3ccccc3C2(N)c2ccccc21 (stereo not given)	> 100 µM	> 100 µM	> 100 µM	> 100 µM	> 100 µM	> 100 µM	–	> 100 µM	> 100 µM	> 100 µM	–	–	–	–	–	–	–	–	–	–
Cc1ccc(Cl)cc1NC(=O)c1sc2nc3c(cc2c1N)C(=O)CCC3	> 100 µM	> 100 µM	> 100 µM	> 100 µM	–	–	> 100 µM	7.44 µM	> 100 µM	> 100 µM	1.86 µM	3.85 µM	> 100 µM	> 100 µM	–	> 100 µM	5.64 µM	2.33 µM	5.26 µM	–
COc1ccc2c(c1)C(=O)c1c-2n(CCCI)c(=O)c2cc([N+](=O)[O-])ccc12	3.6 µM and 0.95 µM	50 µM and 40.9 µM	7.77 µM	6.02 µM and 14.7 µM	0.988 µM and 1.27 µM	19.4 µM and 20.1 µM	–	50 µM and 66.8 µM	–	36.9 µM and > 100 µM	0.609 µM and 0.157 µM	0.316 µM and 0.402 µM	0.143 µM	0.671 µM and 0.89 µM	0.16 µM and 0.119 µM	–	0.313 µM and 0.131 µM	0.122 µM and 0.1 µM	0.23 µM and 0.48 µM	1.08 µM and 2.99 µM
N#CC1CCCCCCCCCCC(=O)N(CCCl)C1=O (stereo not given)	> 100 µM	> 100 µM	> 100 µM	–	> 100 µM	> 100 µM	> 100 µM	> 100 µM	> 100 µM	> 100 µM	–	–	–	–	–	–	–	–	–	–
CC(=O)OCc1cc2ccccc2nc1C(Br)(Br)Br	42.8 µM	31.2 µM	56.3 µM	60.8 µM	29.8 µM	30.2 µM	–	32.9 µM	86.6 µM	46.2 µM	–	–	–	–	–	–	–	–	–	–

Reference: PubChem BioAssay (NCI)
